Assay results published in US6849596B1, “Regulatory/unfolding peptides of ezrin” (priority 1999, dated 2005).

Assays:
[1] = system: IgG serum antibody response to Ovalbumin; assay: Adjuvant activity: IgG serum antibody response to Ovalbumin in mice; format: in vivo; settings: for IgG response recorded as OD: 50 micrograms Ovalbumin, two weeks, sera 1 to 100; for IgG response recorded as OD then rebased relative to 100 for each control: control = 100
Description: Adjuvant Activity of Hepreceptor Peptides Enhancing the IgG Serum Antibody Response to Ovalbumin in Mice
The IgG response in mice two weeks after an injection of 50 micrograms of Ovalbumin plus various concentrations of different hepreceptor peptides was determined. IgG response was measured by Optical Density (OD) of a 1 to 100 dilution of mouse sera in the presence of Ovalbumin.
IgG response recorded as OD
IgG response recorded as OD then data rebased relative to 100 for each control

[2] = system: activated macrophages; assay: Induction of activated macrophages in mice (peritoneal exsudate); format: in vivo
Description: Groups of three mice (CDAxC57B1)F1 weighing 22-24 g were injected abdominally with each peptide solution of 1.0 microgram of peptide dissolved in 0.5 ml of physiological saline. After 24 hours the animals were killed using neck vertebrae dislocation and 5 ml of Hanks solution was injected into the abdomen. The abdomen was massaged for 30 seconds and then the peritoneal liquid was collected. The collected liquid was filtered using a nylon filter into siliconised tubes containing 1.5 mg/ml EDTA. The number of nucleus containing cells in […] of filtrate were then assessed under microscopic examination using a Nihon hemocytometer. The cells were pelleted by centrifugation for 5 minutes at 800 g, the pellet was resuspended in fetal calf serum, the cell suspension was dropped on to a glass microscope slide and dried then fixed in methanol and stained with Romanovski's colouring agent. Morphological analysis of the cells of the peritoneal exsudate were performed using an Opton optical microscope at 1600 magnifications. The number of lymphocytes, resting macrophages, activated macrophages, granulocytes and other cell types were assessed.

[3] = system: transplanted sarcoma of the uterus SM-322; assay: Transplanted mouse sarcoma SM-322 model; format: in vivo, CBA mice; settings: for Percent decrease in tumour volume relative to control: SM-322
Text: Anticancer Activity of Hepreceptor Peptides on the Growth of Transplanted Sarcoma of the Uterus SM-322 and on Cancer of the Uterine Cervix CUS-5 Performed in CBA Mice Using Rupe312 and Rupe414 as Examples Transplanted mouse sarcoma SM-322 model (endothelial tumour). Primary tumours of the uterus were induced in female mice using 1.2 dimethylhydrazine. A few primary tumours were transplanted into syngeneic mice. The first visible nodules started to appear at the point of transplation after 4 days. The life expectancy of the mice with transplanted tumours was 22-24 days. […] The tumours were introduced as a 0.5 ml of tumour suspension (1 g tumour per 10 ml of Igla medium) and ten mice used in each treatment group. […] The average percent decrease of tumour volume relative to the control group was recorded at three time points. The longevity of the mice in the treatment groups and control groups was compared and the histology of the tumours between control and treatment groups was compared.

[4] = system: HLA Class I on human White Blood Cells; assay: Expression of MHC (HLA) Class I on human White Blood Cells; format: cell-based; settings: 0.003 micrograms per ml
Text: A cell specific effect of this activation was an increase in the population of monocytes expressing MHC Class I and a decrease in the population of CD8 lymphocytes expressing MHC Class I.

[5] = system: IL-8; assay: IL-8 production in human WBC; format: cell-based; settings: 48 hour incubation, without peptide 18900
Description: The suppressive effect of increasing concentrations of Rupe312, a Hepreceptor peptide, on the expression of IL-8 by human WBC after a 48 hour incubation at 37° C. was detected. IL-8 is a chemotactic factor that is produced in response to inflammatory stimulus which attracts and activates T cells, neutrophils, basophils, granulocytes but not monocyte/macrophages. The inhibition of IL-8 may play a role in the selective activity of Rupe 312 in activating monocytes macrophages. The measurement of IL-8 provides an assay for determining the activity of various Hepreceptor derived peptides.

[6] = system: transplanted sarcoma of the uterus SM-322; assay: Transplanted mouse sarcoma SM-322 model; format: in vivo, CBA mice; settings: control 12-16
[7] = system: antibody forming cells against sheep erythocytes (SRBC); assay: Antibody forming cells against sheep erythocytes (SRBC) in mice, plaque count; format: in vivo; settings: four days after SRBC, thirty mice per data point
Description: Activity of Hepreceptor Peptides Enhancing the Antibody-Dependent Cytotoxic Response in […] to Sheep Red Blood Cells (SRBC) in Mice
The influence of Hepreceptor peptides on the activation of antibody forming cells against sheep erythocytes (SRBC) in Mice (CBA-C57B1 Fi hybrids. 2 months old, weight 18-22 grams) was determined. Mice were first injected intraperitoneally using either 0.5 ml sterile saline as a control or Hepreceptor peptides in the same volume of saline. 30 minutes after the injection of Hepreceptor peptides, a cell suspension containing 5 million SRBC was administered intraperitoneally to each mouse. Four days after the immunisation, the mice were killed by cervical dislocation and the spleens were obtained aseptically. Each spleen was homogenised in 2 ml of Medium 199, then 100 microliters of this suspension was put into 1 ml of prepared agarose in Medium 199 (stored in water bath at 48° C.), SRBC suspension was added, resulting in a final concentration of 1% agarose. The Im1 of agarose-cell mixture was agitated then transferred to petri dish to set. When the agarose became solid, the petri dish was incubated for 1 hour at 37° C. then 0.5 ml of 1-in-20 diluted guinea pig serum in Medium 199 was added on top of agarose gel as a source of complement. The incubation was continued for another 1 hour. The dishes were then visualised using an 8×binocular microscope and the number of plaques counted (each plaque equivalent to one antibody secreting mouse spleen cell). The results were expressed both as the number of antibody secreting cells per one million nucleated spleen cells and the number of antibody secreting cells per whole spleen.
Averaged data (from thirty mice per data point) of the number of antibody forming cells per one million nucleated spleen cells. The data was re-based relative to 100 for each control group.

[8] = IP injection 0.01 micrograms per mouse
[9] = IP injection 0.1 micrograms per mouse
[10] = IP injection 1 microgram per mouse
[11] = IP injection 10 micrograms per mouse

KKRRETVERE (Hepreceptor peptide) [Rupe312]
IgG response recorded as OD [1, 8]: 0.68 OD
IgG response recorded as OD then rebased relative to 100 for each control [1, 8]: 99
IgG response recorded as OD [1, 9]: 0.88 OD
IgG response recorded as OD then rebased relative to 100 for each control [1, 9]: 128
IgG response recorded as OD [1, 10]: 0.55 OD
IgG response recorded as OD then rebased relative to 100 for each control [1, 10]: 80
IgG response recorded as OD [1, 11]: 0.44 OD
IgG response recorded as OD then rebased relative to 100 for each control [1, 11]: 64
activity in increasing activated macrophages relative to HEP1 ([2]; 1.0 microgram peptide/mouse): significantly more active than HEP1
Activated macrophages as a percent of total number of cells ([2]; 1.0 microgram peptide/mouse injected abdominally, after 24 hours, saline 1.9): 13.9%
Percent decrease in tumour volume relative to control ([3]; 0.1 Microg/mouse IP twice weekly, Day 8): 61%
Percent decrease in tumour volume relative to control ([3]; 0.1 Microg/mouse IP twice weekly, Day 12): 34%
Percent decrease in tumour volume relative to control ([3]; 0.1 Microg/mouse IP twice weekly, Day 15): 59%
Percent decrease in tumour volume relative to control ([3]; 1 Microg/mouse IP twice weekly, Day 8): 67%
Percent decrease in tumour volume relative to control ([3]; 1 Microg/mouse IP twice weekly, Day 12): 32%
Percent decrease in tumour volume relative to control ([3]; 1 Microg/mouse IP twice weekly, Day 15): 38%
Percent decrease in tumour volume relative to control ([3]; 10 Microg/mouse IP twice weekly, Day 8): 63%
Percent decrease in tumour volume relative to control ([3]; 10 Microg/mouse IP twice weekly, Day 12): 54%
Percent decrease in tumour volume relative to control ([3]; 10 Microg/mouse IP twice weekly, Day 15): 27%
histology of the tumours ([3]; both models (SM-322 and CUC-5)): non bleeding ulcerous destruction of the centre of tumours
relative activity in lowering intensity of HLA expression on WBC ([4]; 24 hours): more active than Rupe 414
Density of cell surface expression of HLA Class I, rebased to 100 for control ([4]; B and NK cells, 24 hours): 73
Percentage of cell population expressing HLA Class I, rebased to 100 for control ([4]; B and NK cells, 24 hours): 105
Density of cell surface expression of HLA Class I, rebased to 100 for control ([4]; CD4 lymphocytes, 24 hours): 70
Percentage of cell population expressing HLA Class I, rebased to 100 for control ([4]; CD4 lymphocytes, 24 hours): 104
Density of cell surface expression of HLA Class I, rebased to 100 for control ([4]; CD8 lymphocytes, 24 hours): 72
Percentage of cell population expressing HLA Class I, rebased to 100 for control ([4]; CD8 lymphocytes, 24 hours): 85
Density of cell surface expression of HLA Class I, rebased to 100 for control ([4]; Granulocytes, 24 hours): 81
Percentage of cell population expressing HLA Class I, rebased to 100 for control ([4]; Granulocytes, 24 hours): 98
Percentage of cell population expressing HLA Class I, rebased to 100 for control ([4]; Monocytes/Macrophages, 24 hours): 119
Density of cell surface expression of HLA Class I, rebased to 100 for control ([4]; Monocytes/Macrophages, 24 hours at 37° C.): 71
IL-8 concentration in culture ([5]; Rupe312 0.001 micrograms/ml): 13900 picrograms/ml
IL-8 concentration in culture ([5]; Rupe312 0.003 micrograms/ml): 10700 picrograms/ml
IL-8 concentration in culture ([5]; Rupe312 0.01 micrograms/ml): 8984 picrograms/ml
IL-8 concentration in culture ([5]; Rupe312 0.03 micrograms/ml): 7869 picrograms/ml
IL-8 concentration in culture ([5]; Rupe312 0.1 micrograms/ml): 6426 picrograms/ml
Days of life expectancy ([6]; 0.1 Microg/mouse IP twice weekly): 12 to 22 days
Days of life expectancy ([6]; 1 Microg/mouse IP twice weekly): 12 to 19 days
Days of life expectancy ([6]; 10 Microg/mouse IP twice weekly): 12 to 27 days
number of antibody forming cells per one million nucleated spleen cells, re-based relative to 100 for control [7, 10]: 317
number of antibody forming cells per one million nucleated spleen cells, re-based relative to 100 for control [7, 11]: 267
